Experimental data as given in patent publication US5830863A, “Neurokinin A antagonists” (priority 1996, dated 1998).
Like-named read-outs stand apart in the source and are kept apart here. Residues, ends and D or L forms follow the SMILES beside them.

Experiments:
[1] = target: T1, neurokinin A (NKA) receptor (NK-2) (Mesocricetus auratus, UniProt P51144); assay: displacement of I125 labeled NKA from hamster urinary bladder membranes; type: binding
T1 construct: displace I125 labeled NKA from hamster urinary bladder; from tissue; host or cells: hamster urinary bladder (membranes in A1, chopped tissue in A4)
T1 sequence (P51144 1-384): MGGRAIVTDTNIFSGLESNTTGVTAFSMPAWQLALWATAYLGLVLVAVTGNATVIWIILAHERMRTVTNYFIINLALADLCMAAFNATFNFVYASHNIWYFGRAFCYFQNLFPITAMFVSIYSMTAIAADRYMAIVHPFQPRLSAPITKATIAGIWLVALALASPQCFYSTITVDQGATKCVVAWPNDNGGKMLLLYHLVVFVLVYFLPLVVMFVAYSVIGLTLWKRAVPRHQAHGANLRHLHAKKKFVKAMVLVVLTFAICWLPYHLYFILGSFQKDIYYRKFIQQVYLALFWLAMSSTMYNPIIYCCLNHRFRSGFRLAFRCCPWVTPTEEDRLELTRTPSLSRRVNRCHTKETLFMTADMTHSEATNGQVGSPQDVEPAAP
From the text: The abscissa (x-axis) logarithmically indicates the concentration in nanomoles of agonist of antagonist of the neurokinin A (NKA) receptor. The ordinate (Y-axis) indicates the observed specific binding for each tested agonist or antagonist measured as a percentage of maximum specific binding.
Agonists tested were NKA and fragments of NKA consisting of the third to tenth (NKA(3-10)) amino acids and the fourth to tenth (NKA(4-10)) amino acids. Values are MEAN±S.E.M. of 6-12 experiments. IC50 values estimated graphically from 50% inhibition point.
Urinary bladders from several hamsters were pooled, minced, and homogenized in 50 mM TRIS-HCl (pH 7.4) containing 120 mM NaCl and 5 mM KCl at 4° C. and centrifuged at 48,000×g for 15 minutes. The pellet was resuspended for 30 minutes in 50 mM TRIS-HCl (pH 7.4) containing 10 mM EDTA and 300 mM KCl at 4° C. The suspension was centrifuged as above and the pellet was washed two times in plain 50 mM TRIS-HCl (pH 7.4) and centrifuged similarly. The tissue was then resuspended in incubation buffer and an aliquot (approximately 3-5 mg tissue) was added to each assay tube to commence the assay. The assay tubes contained incubation buffer consisting of 50 mM TRIS-HCl (pH 7.4), 0.02% BSA, 40 μg/ml bacitracin, 4 μg/ml chymostatin, 4 μg/ml leupeptin, 2 mM MnCl2, 0.1 nM ^125 iodohistidyl^1 -neurokinin A (Amersham Corp.), and concentrations of the title compounds or standards ranging from 0.03 nM to 100 μM. The assay was allowed to proceed to equilibrium for 120 min at room temperature. After this time, the contents of each tube was rapidly filtered over Whatman GF/B filters presoaked in 0.5% BSA and the filters were rapidly washed two times with ice-cold plain 50 mM TRIS-HCl (pH 7.4). Filter-bound radioactivity was quantitated in a gamma counter. Specific binding (maximum) was defined as the difference between binding in the presence and absence of 1 μM unlabeled neurokinin A. Competition of iodinated neurokinin A binding by test compounds or standards was expressed as a percentage of this maximum competition.
(§1) Values given indicate the concentration in nanomoles of antagonist to reach the IC50 of the neurokinin A (NKA) receptor. SKLKB82#3 represents a cloned NK-2 receptor cell line; the sample is prepared from the scraped cell pellet for assay as earlier described for the hamster urinary bladder preparations. NK-1 represents a substance P receptor preparation from rat salivary gland; receptors are prepared as earlier described for the hamster urinary bladder preparations. Blank spaces indicate compound has not been tested in that particular assay.

[2] = target: T2, cloned NK-2 receptor (SKLKB82#3 cell line) (Bos taurus, UniProt P05363); assay: I125 NKA binding to SKLKB82#3 cloned NK-2 receptor cell line
T2 construct: expressed in transfected cells; host or cells: SKLKB82#3 cell line (scraped cell pellet)
T2 sequence (P05363 1-384): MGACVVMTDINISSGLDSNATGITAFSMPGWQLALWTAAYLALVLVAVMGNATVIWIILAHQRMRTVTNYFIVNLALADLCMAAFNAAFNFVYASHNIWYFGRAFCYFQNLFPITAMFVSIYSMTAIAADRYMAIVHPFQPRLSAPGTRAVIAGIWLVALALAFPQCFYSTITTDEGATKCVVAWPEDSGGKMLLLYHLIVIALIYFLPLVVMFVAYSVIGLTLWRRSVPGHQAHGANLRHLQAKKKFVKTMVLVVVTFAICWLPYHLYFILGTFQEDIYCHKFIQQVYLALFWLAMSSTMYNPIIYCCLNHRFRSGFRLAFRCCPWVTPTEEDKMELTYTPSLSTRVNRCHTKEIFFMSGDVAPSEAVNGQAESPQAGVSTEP
Protocol: as §1, with “preparations.” for “preparations. Blank spaces indicate compound has not been tested in that particular assay.”

[3] = target: T3, NK-1 (substance P receptor) (Rattus norvegicus, UniProt P14600); assay: NK-1 substance P receptor preparation from rat salivary gland, binding
T3 construct: substance P receptor preparation from rat salivary gland; from tissue; host or cells: rat salivary gland
Protocol: as §1, with “preparations.” for “preparations. Blank spaces indicate compound has not been tested in that particular assay.”

[4] = cloned NK-2 receptor cell line, scraped cell pellet, read-out: SKLKB82#3 IC50

T3 sequence (P14600 whole entry): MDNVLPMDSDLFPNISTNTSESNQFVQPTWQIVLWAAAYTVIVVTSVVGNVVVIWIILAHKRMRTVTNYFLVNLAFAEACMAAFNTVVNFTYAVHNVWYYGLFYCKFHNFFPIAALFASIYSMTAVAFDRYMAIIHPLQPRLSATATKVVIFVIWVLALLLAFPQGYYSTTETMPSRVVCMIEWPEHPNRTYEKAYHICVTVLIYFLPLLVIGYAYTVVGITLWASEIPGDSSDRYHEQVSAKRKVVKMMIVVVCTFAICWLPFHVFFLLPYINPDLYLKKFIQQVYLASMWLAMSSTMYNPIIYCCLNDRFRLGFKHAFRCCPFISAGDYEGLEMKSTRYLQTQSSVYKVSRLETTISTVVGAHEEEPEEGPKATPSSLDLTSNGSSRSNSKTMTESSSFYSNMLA

SMILES | IC50 [1] [µM] | IC50 [2, 4] [µM] | IC50 [3] [µM] | IC50 [2] [µM]
CC(C)C[C@H](NC(=O)[C@H](CC(C)C)N(C)CCNC(=O)[C@@H](NC(=O)[C@H](Cc1ccccc1)NC(=O)[C@H](CO)NC(=O)[C@@H](N)CC(=O)O)C(C)C)C(N)=O [MDL 102,369, Asp--Ser--Phe--Val--Gly[.psi.CH2 NCH3)]Leu--Leu--NH2] (HELM PEPTIDE1{D.S.F.V.[CC(C)C[C@@H](C(=O)[*:2])N(C)CCN[*:1]].L.[am]}$$$$V2.0) | > 10 | – | – | –
CC(C)C[C@@H](CN[C@@H](Cc1ccccc1)C(N)=O)NC(=O)CNC(=O)[C@@H](NC(=O)[C@H](Cc1ccccc1)NC(=O)[C@H](CO)NC(=O)[C@@H](N)CC(=O)O)C(C)C [MDL 101,382, Asp--Ser--Phe--Val--Gly--Leu(.psi.(CH2 NH))Phe--NH2] (HELM PEPTIDE1{D.S.F.V.G.[CC(C)C[C@@H](CN[C@@H](Cc1ccccc1)C(N)=O)N[*:1]]}$$$$V2.0) | 0.005 | – | – | 0.2
CC(C)C[C@H](NC(=O)[C@H](CC(C)C)NC(=O)CNC[C@@H](NC(=O)[C@H](Cc1ccccc1)NC(=O)[C@H](CO)NC(=O)[C@@H](N)CC(=O)O)C(C)C)C(N)=O [MDL 29,882, Asp--Ser--Phe--Val[.psi.(CH2 NH)]Gly--Leu--Leu--NH2] | > 5 | – | > 100 | –
CC(C)C[C@@H](CO)NC[C@H](CC(C)C)NC(=O)CNC(=O)[C@@H](NC(=O)[C@H](Cc1ccccc1)NC(=O)[C@H](CO)NC(=O)[C@@H](N)CC(=O)O)C(C)C [MDL 102,678, Asp--Ser--Phe--Val--Gly--Leu[.psi.(CH2 NH)]Leu--CH2 OH] (HELM PEPTIDE1{D.S.F.V.G.[CC(C)C[C@@H](CO)NC[C@H](CC(C)C)N[*:1]]}$$$$V2.0) | > 10 | > 10 | – | –
CC(C)C[C@H](NC(=O)[C@H](CC(C)C)NC(=O)CNC(=O)[C@H](C(C)C)N(C)C[C@H](Cc1ccccc1)NC(=O)[C@H](CO)NC(=O)[C@@H](N)CC(=O)O)C(N)=O [MDL 29,678, Asp--Ser--Phe[.psi.(CH2 NCH3)]Val--Gly--Leu--Leu--NH2] (HELM PEPTIDE1{D.S.[CC(C)[C@@H](C(=O)[*:2])N(C)C[C@H](Cc1ccccc1)N[*:1]].G.L.L.[am]}$$$$V2.0) | > 10 | – | – | –
CC(C)C[C@H](NC(=O)[C@H](CC(C)C)NC(=O)CN(C)C[C@@H](NC(=O)[C@H](Cc1ccccc1)NC(=O)[C@H](CO)NC(=O)[C@@H](N)CC(=O)O)C(C)C)C(N)=O [MDL 29,712, Asp--Ser--Phe--Val[.psi.(CH2 NCH3)]Gly--Leu--Leu--NH2] (HELM PEPTIDE1{D.S.F.[CC(C)[C@@H](CN(C)CC(=O)[*:2])N[*:1]].L.L.[am]}$$$$V2.0) | > 5 | – | – | –
CC(C)C[C@H](NC(=O)[C@H](CC(C)C)NC(=O)CNC(=O)[C@@H](NC(=O)[C@H](Cc1ccccc1)NC(=O)[C@H](CO)NCCCC(=O)O)C(C)C)C(N)=O [MDL 101,905, Suc[.psi.(CH2 NH)]Ser--Phe--Val--Gly--Leu--Leu--NH2] (HELM PEPTIDE1{[O=C(O)CCCN[C@@H](CO)C(=O)[*:2]].F.V.G.L.L.[am]}$$$$V2.0) | 2 | – | – | –

Further lines, with some results ahead:

IC50 [1] [µM] | IC50 [2, 4] [µM] | IC50 [3] [µM] | SMILES | IC50 [2] [µM]
0.257 ± 0.03 | 4.73 ± 0.393 | – | CCN(C[C@H](CC(C)C)NC(=O)CNC(=O)[C@@H](NC(=O)[C@H](Cc1ccccc1)NC(=O)[C@H](CO)NC(=O)[C@@H](N)CC(=O)O)C(C)C)[C@@H](CC(C)C)C(N)=O [MDL 29,716, Asp-Ser-Phe-Val-Gly-Leu(.PSI.(CH2 NCH2 CH3))Leu-NH2] (HELM PEPTIDE1{D.S.F.V.G.[CCN(C[C@H](CC(C)C)N[*:1])[C@@H](CC(C)C)C(N)=O]}$$$$V2.0) | –
0.103 ± 0.013 | – | – | CCCN(C[C@H](CC(C)C)NC(=O)CNC(=O)[C@@H](NC(=O)[C@H](Cc1ccccc1)NC(=O)[C@H](CO)NC(=O)[C@@H](N)CC(=O)O)C(C)C)[C@@H](CC(C)C)C(N)=O [MDL 102,863, Asp-Ser-Phe-Val-Gly-Leu(.PSI.(CH2 N(CH2)2 CH3))Leu-NH2] (HELM PEPTIDE1{D.S.F.V.G.[CCCN(C[C@H](CC(C)C)N[*:1])[C@@H](CC(C)C)C(N)=O]}$$$$V2.0) | –
0.019 ± 0.003 | – | – | CC(C)C[C@@H](CN[C@@H](CC(C)C)C(N)=O)NC(=O)CCNC(=O)[C@@H](NC(=O)[C@H](Cc1ccccc1)NC(=O)[C@H](CO)NC(=O)[C@@H](N)CC(=O)O)C(C)C [MDL 102,500, Asp-Ser-Phe-Val-β-Ala-Leu(.PSI.(CH2 NH))Leu-NH2] (HELM PEPTIDE1{D.S.F.V.[bAla].[CC(C)C[C@@H](CN[C@@H](CC(C)C)C(N)=O)N[*:1]]}$$$$V2.0) | –
0.05 ± 0.005 | – | > 10 | CSCC[C@H](NC[C@H](CC(C)C)NC(=O)CNC(=O)[C@@H](NC(=O)[C@H](Cc1ccccc1)NC(=O)[C@H](CO)NC(=O)[C@@H](N)CC(=O)O)C(C)C)C(N)=O [MDL 29,646, Asp--Ser--Phe--Val--Gly--Leu(.psi.(CH2 NH))Met--NH2] (HELM PEPTIDE1{D.S.F.V.G.[CSCC[C@H](NC[C@H](CC(C)C)N[*:1])C(N)=O]}$$$$V2.0) | –
